This data set in a line: Human HepG2 cell viability assay in 384 well format. The arrangement: dose 125 nL, time 70.5 hour; concentration not given beside the values. The settings on record: HepG2 cells, read-out: Inhibition. It counts as toxicity, cell-based.
Turning to `CNC(=O)CCc1cc(C)nc(C2CCN(c3cnccn3)CC2)c1`, the cytotoxicity at 70.5 h came out at 0.777%.

Turning to `CCN(CC)C(=O)CN1CCCC1c1nc(C)c2c(n1)N(C)C(=O)CC2` (stereo not given), the cytotoxicity at 70.5 h is -7.02%.

As for `O=C(C1CC1)N1C[C@H]2CCCN(S(=O)(=O)c3cccc(F)c3)[C@H]2C1`, the cytotoxicity at 70.5 h was found to be 3.8%.

As to `CSc1nnc(CNC(=O)Nc2ccccc2F)n1C`, the cytotoxicity at 70.5 h is -7.23%.

As to `CCn1c(SC)nnc1C1CCN(C(=O)N2CCCC2)CC1`, the cytotoxicity at 70.5 h is -4.95%.

`CSc1nnc(C2CCN(C(=O)N3CCOCC3)CC2)n1C(C)C`: the cytotoxicity at 70.5 h turned out to be 7.97%.

`CS(=O)(=O)c1cc(Cl)cnc1C1CCN(C(=O)C2CCCO2)CC1` (stereo not given): the cytotoxicity at 70.5 h is -5.11%.

`Cn1cc(C2=NOC(C(=O)NC3(c4ccccc4)CCCC3)C2)cn1` (stereo not given): the cytotoxicity at 70.5 h is -3.59%.

As to `Cc1ccc(S(=O)(=O)N2CC[C@@H]3C[C@H](NC(=O)c4n[nH]cc4Cl)[C@@H]32)cc1`, the cytotoxicity at 70.5 h is -1.23%.

For the molecule `Cc1cnc(-c2nc(C3CCCN(Cc4cccs4)C3)no2)cn1` (stereo not given), the cytotoxicity at 70.5 h was found to be 23.7%.

Regarding `CC(C)C(=O)N1CCCC([C@@H]2C[C@H](C(F)F)n3ncnc3N2)C1` (stereo not given in full), the cytotoxicity at 70.5 h is -3.96%.

As for `COCC(=O)N[C@@H]1CN(Cc2c[nH]nc2-c2cccs2)C[C@H]1O`, the cytotoxicity at 70.5 h was -2.93%.

`COc1ccc(CC(=O)N2CCN(Cc3ccco3)C[C@@H]2C)cc1`: the cytotoxicity at 70.5 h is -7.32%.

As for `COc1ccc(CC(=O)N2CCN(Cc3ccco3)C[C@@H]2C)cc1OC`, the cytotoxicity at 70.5 h is -3.94%.

Turning to `COc1ccccc1-c1ccc(C2CCCN(C(C)=O)C2)nc1` (stereo not given), the cytotoxicity at 70.5 h was -0.199%.

Regarding `c1cc(C2CN(C3CCCC3)C2)n[nH]1`, the cytotoxicity at 70.5 h was -1.02%.

For `CCN(Cc1ccncc1)c1cc(C2CCN2C(C)=O)nc(C)n1` (stereo not given), the cytotoxicity at 70.5 h is -1.55%.

Regarding `CC(=O)N1CCC(C)(c2cc(C(=O)NCC(C)(C)C)nc(C)n2)CC1`, the cytotoxicity at 70.5 h was found to be 9.62%.

With `Cc1nc(CN2CCCC(c3cnccn3)C2)cs1` (stereo not given), the cytotoxicity at 70.5 h was -2.76%.

For the molecule `CC(C)c1cc(C(=O)N2CCC3(CCc4ccccc4C(=O)N3)C2)on1` (stereo not given), the cytotoxicity at 70.5 h is -2.23%.

For `CC(NC(=O)CCn1c(=O)oc2ccccc21)c1ccccn1` (stereo not given), the cytotoxicity at 70.5 h was -2.59%.

`Cc1cccc(-c2nccnc2C2CCCN(C)C2)c1C` (stereo not given): the cytotoxicity at 70.5 h worked out at 18.2%.

As to `CC(=O)NCC(=O)N1CCCC1c1ccc(CN2CCOCC2)cn1` (stereo not given), the cytotoxicity at 70.5 h was -4.76%.

As for `CC(=O)N1CCCC1c1ccc(CN2CCOCC2)cn1` (stereo not given), the cytotoxicity at 70.5 h stood at 16.7%.

For `CC1(Cc2ccc(F)cc2)Cc2cc(C(=O)NCCO)ccc2O1` (stereo not given), the cytotoxicity at 70.5 h was -0.493%.

Turning to `Cc1csc(NC(=O)C2(C)CN(C)CCO2)n1` (stereo not given), the cytotoxicity at 70.5 h was 1.56%.

In the case of `O=C(c1cccnc1)N1CCCC(c2ccnc3nccn23)C1` (stereo not given), the cytotoxicity at 70.5 h is 7.06%.

Take `Cc1c[nH]c(C2COCCN2C(=O)CCc2c(C)n[nH]c2C)n1` (stereo not given): the cytotoxicity at 70.5 h is -9.97%.

On to `Cc1cc(N2CCCC2c2cnccn2)ncn1` (stereo not given), for which the cytotoxicity at 70.5 h was -5.35%.

As to `CCc1nnc(Nc2cccc(C3CCN(CCO)CC3)n2)s1`, the cytotoxicity at 70.5 h worked out at 7.17%.

For `Cc1c[nH]nc1C1CCN(S(=O)(=O)N(C)C)CC1`, the cytotoxicity at 70.5 h is 0.689%.

As for `CN(C)C(=O)C1CN(Cc2cscn2)CCN(S(C)(=O)=O)C1` (stereo not given), the cytotoxicity at 70.5 h turned out to be 7.94%.

For the molecule `CN1CCC(Cc2cc(Nc3ncccn3)ncn2)CC1`, the cytotoxicity at 70.5 h is -4.15%.

On to `Cc1nn(C)cc1CN1CCC(C2Nc3ccccc3S(=O)(=O)N2)CC1` (stereo not given), for which the cytotoxicity at 70.5 h was -12.8%.

With `O=C(CCC1CCCC1)N1CCC(c2ncc3c(n2)CCNC3)CC1`, the cytotoxicity at 70.5 h was 11.5%.

For the molecule `CN(CC1(O)CCCN(c2ccccn2)C1)C(=O)Cc1ccsc1` (stereo not given), the cytotoxicity at 70.5 h is -9.68%.

Consider `Cc1nc(NC2CCCC2)cc(C2CCN2C(=O)c2ccccc2)n1` (stereo not given), for which the cytotoxicity at 70.5 h was found to be 14.2%.

On to `CN1CCCC1c1cccc(Cc2ccccc2F)n1` (stereo not given), for which the cytotoxicity at 70.5 h was determined as 0.232%.

On to `c1cncc(C2=NOC3(CCN(Cc4c[nH]c5ccccc45)CC3)C2)c1`, for which the cytotoxicity at 70.5 h worked out at 5.06%.

Turning to `c1ccc(C2=NOC3(CCN(Cc4c[nH]c5ccccc45)CC3)C2)cc1`, the cytotoxicity at 70.5 h turned out to be 11.1%.

In the case of `CN1CC(=O)N(c2cccnc2)Cc2c(NC3CC3)ncnc21`, the cytotoxicity at 70.5 h was -0.235%.

As to `CC(C)CN1CCCC(c2nc(O)c3cc(F)ccc3n2)C1` (stereo not given), the cytotoxicity at 70.5 h worked out at 1.3%.

Consider `Cc1ccc2nc(C3CCCN(CC(C)C)C3)nc(O)c2c1` (stereo not given), for which the cytotoxicity at 70.5 h was -2.98%.

As to `CCN1CCCC(c2nc(O)c3cc(C)ccc3n2)C1` (stereo not given), the cytotoxicity at 70.5 h was -8.23%.

In the case of `O=C(c1ccc2c(c1)OCO2)N1CCC(C(=O)O)(c2ccccc2)CC1`, the cytotoxicity at 70.5 h was -11.1%.

Regarding `CC(C)C1=NOC2(CCN(S(C)(=O)=O)CC2)C1`, the cytotoxicity at 70.5 h was -12.4%.

In the case of `COc1ccccc1-c1cc(C(=O)N2CCCC2)c2cnn(C)c2n1`, the cytotoxicity at 70.5 h was -5.55%.

In the case of `NCCC(=O)N1CCC2(CC1)CN(C(=O)c1ccc(Cl)cc1)CCO2`, the cytotoxicity at 70.5 h is -12.1%.

Take `NCCC(=O)N1CCC2(CC1)CN(C(=O)Cc1ccc(Cl)cc1)CCO2`: the cytotoxicity at 70.5 h is -14.3%.

On to `CN(C)C(=O)C1CCc2nnc(C(C)(C)C)n21` (stereo not given), for which the cytotoxicity at 70.5 h was -3.32%.

Consider `CN(C)C(=O)c1cc(-c2ccc(S(C)(=O)=O)cc2)c2cnn(C)c2n1`, for which the cytotoxicity at 70.5 h was -7.12%.

Consider `Cc1cc(C(=O)NCc2ccc(F)cc2)c2c(C3CCNC3)noc2n1` (stereo not given), for which the cytotoxicity at 70.5 h was -7.85%.

As to `CC1(C(=O)NCc2cc(F)cc(F)c2)CCOCC1`, the cytotoxicity at 70.5 h is -6.71%.

Take `O=C(NC1CC1)C1CCc2nnc(C3CC3)n21` (stereo not given): the cytotoxicity at 70.5 h was -10.1%.

With `O=C1CC2(CCN(C(=O)c3ccccn3)C2)Nc2ccccc2N1` (stereo not given), the cytotoxicity at 70.5 h was -14.7%.

For the molecule `c1c[nH]c2nc(C3CCNC3)nc-2c1` (stereo not given), the cytotoxicity at 70.5 h was -17.5%.

For `COC(=O)CNC(=O)c1nc(-c2ccccc2OC)c2cnccn12`, the cytotoxicity at 70.5 h is -11.4%.

For the molecule `O=C1NC2(Cc3ccccc31)CN(CC1CCOCC1)C2`, the cytotoxicity at 70.5 h was 25.2%.

Consider `Cn1nc(C2CCNCC2)c2c(C(=O)NC3CC3)cc(C3CC3)nc21`, for which the cytotoxicity at 70.5 h came out at 15%.

Take `Cn1nc(C2CCNC2)c2c(C(=O)NC3CC3)cc(C3CC3)nc21` (stereo not given): the cytotoxicity at 70.5 h turned out to be 17.5%.

Turning to `CC(=O)N1CC2(CCCN2Cc2ccc(Cl)cc2)Cc2ccccc21` (stereo not given), the cytotoxicity at 70.5 h was 31.4%.

Take `CN(C)[C@@H]1CN(Cc2cccnc2)C[C@H]1c1cn(C)c2ccccc12`: the cytotoxicity at 70.5 h is -2.36%.

In the case of `Cc1nn(C)cc1S(=O)(=O)NCC(c1ccccc1)N1CCCCCC1` (stereo not given), the cytotoxicity at 70.5 h is 17.9%.

As for `Cc1cnc(-c2nc(C3CCCN(Cc4ccccc4C)C3)no2)cn1` (stereo not given), the cytotoxicity at 70.5 h amounted to 21.7%.

Take `Cc1cccc(CNc2cc(C3CCCNC3)ccn2)n1` (stereo not given): the cytotoxicity at 70.5 h is -7.94%.

Take `Cc1noc2nc(C3CCN(CC4=CCCOC4)CC3)cc(C(F)F)c12`: the cytotoxicity at 70.5 h is -7.18%.

On to `Cc1ncc(CN2CCCC(O)(c3ccc(F)cc3)CC2)n1C` (stereo not given), for which the cytotoxicity at 70.5 h is -5.42%.

As to `Cc1nc[nH]c1CN(Cc1ccccc1F)C1CC(C)(C)NC(C)(C)C1`, the cytotoxicity at 70.5 h is -2.5%.

In the case of `CC1(C)CC(N(Cc2ccccc2)Cc2ncc[nH]2)CC(C)(C)N1`, the cytotoxicity at 70.5 h is -1.78%.

On to `CC1(C)CC(N(Cc2ccccc2)Cc2c[nH]cn2)CC(C)(C)N1`, for which the cytotoxicity at 70.5 h was 2.11%.

The record behind these values is ChEMBL document CHEMBL3507680, “University of Dundee, Gates Library screen for HepG2 cell viability”.
